Key:
Assay in all cases: relative viability (nuclei count vs DMSO), 5 days (fraction); higher = more cells survive
Ispinesib + Foretinib = compound: Cc1ccc(C(=O)N(CCCN)[C@@H](c2nc3cc(Cl)ccc3c(=O)n2Cc2ccccc2)C(C)C)cc1 [Ispinesib] + COc1cc2c(Oc3ccc(NC(=O)C4(C(=O)Nc5ccc(F)cc5)CC4)cc3F)ccnc2cc1OCCCN1CCOCC1 [Foretinib] (partner 0.25 µM)
Procedure, shortened: (§1)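 Lung cancer cell lines were seeded in 1536-well plates and dosed by pin tool the next day, with either a single drug or a fixed anchor-drug dose combined with five library-drug doses (not always all listed) spaced in √10 steps. Five days later, one step fixed the cells and stained their nuclei (final 0.05% Triton X-100, 1% formaldehyde, 1 ug/ml Hoechst), and nuclei were counted on 4× images. Relative viability is the nuclei count in treated wells divided by the count in vehicle wells, and each value is the median of duplicate plates.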

Ispinesib + Olaparib = compound: Cc1ccc(C(=O)N(CCCN)[C@@H](c2nc3cc(Cl)ccc3c(=O)n2Cc2ccccc2)C(C)C)cc1 [Ispinesib] + O=C(c1cc(Cc2n[nH]c(=O)c3ccccc23)ccc1F)N1CCN(C(=O)C2CC2)CC1 [Olaparib] (partner 8 µM)
Procedure, shortened: as §1

Linsitinib + Olaparib = compound: C[C@]1(O)C[C@@H](c2nc(-c3ccc4ccc(-c5ccccc5)nc4c3)c3c(N)nccn32)C1 [Linsitinib] + O=C(c1cc(Cc2n[nH]c(=O)c3ccccc23)ccc1F)N1CCN(C(=O)C2CC2)CC1 [Olaparib] (partner 8 µM)
Procedure, shortened: as §1

Linsitinib + OSI-027 = compound: C[C@]1(O)C[C@@H](c2nc(-c3ccc4ccc(-c5ccccc5)nc4c3)c3c(N)nccn32)C1 [Linsitinib] + COc1cccc2cc(-c3nc([C@H]4CC[C@H](C(=O)O)CC4)n4ncnc(N)c34)[nH]c12 [OSI-027] (partner 0.5 µM)
Procedure, shortened: as §1

Cell Line | relative viability (Ispinesib + Foretinib; first compound 0.001 µM) | relative viability (Ispinesib + Foretinib; first compound 0.003162 µM) | relative viability (Ispinesib + Foretinib; first compound 0.01 µM) | relative viability (Ispinesib + Foretinib; first compound 0.03162 µM) | relative viability (Ispinesib + Foretinib; first compound 0.1 µM) | relative viability (Ispinesib + Olaparib; first compound 0.001 µM) | relative viability (Ispinesib + Olaparib; first compound 0.003162 µM) | relative viability (Ispinesib + Olaparib; first compound 0.01 µM) | relative viability (Ispinesib + Olaparib; first compound 0.03162 µM) | relative viability (Ispinesib + Olaparib; first compound 0.1 µM) | relative viability (Linsitinib + Olaparib; first compound 0.01 µM) | relative viability (Linsitinib + Olaparib; first compound 0.03162 µM) | relative viability (Linsitinib + Olaparib; first compound 0.1 µM) | relative viability (Linsitinib + Olaparib; first compound 1 µM) | relative viability (Linsitinib + OSI-027; first compound 0.01 µM) | relative viability (Linsitinib + OSI-027; first compound 0.03162 µM) | relative viability (Linsitinib + OSI-027; first compound 0.1 µM) | relative viability (Linsitinib + OSI-027; first compound 1 µM) | relative viability (Linsitinib + Olaparib; first compound 0.3162 µM) | relative viability (Linsitinib + OSI-027; first compound 0.3162 µM)
HCC-827 | 1.04 | 1.02 | 1.05 | 0.936 | 0.684 | 0.652 | 0.672 | 0.67 | 0.686 | 0.601 | 0.759 | 0.377 | 0.606 | 0.625 | 0.769 | 0.836 | 0.821 | 0.771 |  | 
PC-3 [JPC-3] | 1.09 | 1.1 | 0.594 | 1.07 | 0.751 | 1.23 | 1.31 | 0.887 | 1.12 | 0.541 | 1.16 | 1.1 | 1.2 | 1.02 | 0.709 | 0.79 | 0.664 | 0.463 | 1.04 | 0.651
NCI-H1355 | 0.991 | 1.01 | 1.24 | 0.95 | 0.444 | 0.736 | 0.806 | 0.889 | 0.736 | 0.328 | 0.741 | 0.742 | 0.628 | 0.353 | 0.419 | 0.41 | 0.307 | 0.226 | 0.483 | 0.244
IA-LM | 1.21 | 1.51 | 1.45 | 1.06 | 0.132 | 0.916 | 0.938 | 1.15 | 1.02 | 0.155 | 0.906 | 0.976 | 0.871 | 0.75 |  |  |  |  | 0.796 | 
NCI-H522 |  |  |  |  |  | 0.634 | 0.585 | 0.779 | 0.571 | 0.555 | 0.895 | 0.588 | 0.554 | 0.57 | 0.729 | 0.798 | 0.695 | 0.574 | 0.512 | 
NCI-H1563 | 0.895 | 0.879 | 0.984 | 0.845 | 0.798 |  |  |  |  |  |  |  |  |  | 0.695 | 0.786 | 0.714 | 0.63 |  | 0.87
NCI-H1648 |  |  |  |  |  | 1.04 | 1.07 | 0.751 | 0.889 | 0.0854 | 0.766 | 0.941 | 1.31 | 0.399 | 0.26 | 0.265 | 0.264 | 0.245 | 0.377 | 
Calu-6 | 0.981 | 0.887 | 0.854 | 0.39 | 0.125 | 0.56 |  | 0.422 | 0.193 | 0.192 | 0.537 | 0.46 | 0.542 | 0.458 |  |  |  |  | 0.501 | 
NCI-H1299 | 1.14 | 1.13 | 1.14 | 1.09 | 0.584 | 1.02 | 0.993 | 1.07 | 0.986 | 0.478 | 0.915 | 1.03 | 1 | 0.93 |  |  |  |  | 0.976 | 
EBC-1 | 0.111 | 0.101 | 0.109 | 0.0927 | 0.0893 | 0.772 | 0.725 | 0.792 | 0.669 | 0.171 | 0.664 | 0.851 | 0.703 | 0.691 |  |  |  |  | 0.623 | 
